Results as given in patent US9181193B2, “Indenoquinolone compound, preparation method and use thereof” (Second Military Medical University, PLA, priority 2010, dated 2015).
Values after ≈ are worked out from the molar mass of the structure shown.

Key:
[1] = tested on: MDA-MB-435 (human breast cancer cells); assay: MTT in vitro anti-tumor activity test, MDA-MB-435; type: cell-based; conditions: for IC50: Homo sapiens, MDA-MB-435, 72 h, read-out: MDA-MB-435 IC50
[2] = tested on: human lung cancer cell line A549; assay: Anti-tumor activity test in vivo, nude mouse model of A549; conditions: nude mouse model of A549, dose of 1-200 mg/kg weight
Source text: The activities of some compounds in vivo in the nude mouse model of human lung cancer cell line A549 were detected by using literature methods (WEI Hong. Medical Experiments Zoology. 2nd edition. Chengdu: Sichuan Science and Technology Press, 2001: 595-596).

[3] = tested on: Colo205 (human colon cancer cells); assay: MTT in vitro anti-tumor activity test, Colo205; type: cell-based; conditions: for IC50: Homo sapiens, COLO 205, 72 h, read-out: Colo205 IC50
[4] = tested on: HepG2 (human hepatoma cells); assay: MTT in vitro anti-tumor activity test, HepG2; type: cell-based; conditions: for IC50: Homo sapiens, HepG2, 72 h, read-out: HepG2 IC50
[5] = tested on: A549 (human lung cancer cells); assay: MTT in vitro anti-tumor activity test, A549; type: cell-based; conditions: for IC50: Homo sapiens, A549, 72 h, read-out: A549 IC50
[6] = MDA-MB-435, 100 μg/mL, MTT, 72 h
[7] = MDA-MB-435 human breast cancer cells, MTT, 72 h
[8] = Colo205 human colon cancer cells, MTT, 72 h
[9] = HepG2 human hepatoma cells, MTT, 72 h
[10] = A549 human lung cancer cells, MTT, 72 h
[11] = inhibition at 100 μg/mL, MTT assay, 72 h, MDA-MB-435 cells
[12] = inhibition at 100 μg/mL, MTT assay, 72 h, Colo205 cells
[13] = inhibition at 100 μg/mL, MTT assay, 72 h, HepG2 cells
[14] = inhibition at 100 μg/mL, MTT assay, 72 h, A549 cells

| MDA-MB-435 IC50 [1, 7] | Colo205 IC50 [3, 8] | HepG2 IC50 [4, 9] | A549 IC50 [5, 10] | Compound | IC50 [1] | MDA-MB-435 100 μg/mL IC % [1, 6] | anti-tumor activity in vivo [2] | Colo205 100 μg/mL IC % ([3]; Colo205, 100 μg/mL, MTT, 72 h) | IC50 [3] | HepG2 100 μg/mL IC % ([4]; HepG2, 100 μg/mL, MTT, 72 h) | IC50 [4] | A549 100 μg/mL IC % ([5]; A549, 100 μg/mL, MTT, 72 h) | IC50 [5] | MDA-MB-435 100 μg/mL IC % [1, 11] | Colo205 100 μg/mL IC % [3, 12] | HepG2 100 μg/mL IC % [4, 13] | A549 100 μg/mL IC % [5, 14] | other results |
| --- | --- | --- | --- | --- | --- | --- | --- | --- | --- | --- | --- | --- | --- | --- | --- | --- | --- | --- |
|  |  |  |  | COc1ccc2c(c1)C(=O)c1c-2c(OCCN(C)C)nc2ccccc12 [Compound 1] | 1 µg/mL (≈ 2.87 µM) | 95.81% | good anti-tumor activity in vivo | 100% | 0.621 µg/mL (≈ 1.78 µM) | 99.40% | 0.721 µg/mL (≈ 2.07 µM) | 100% | 0.983 µg/mL (≈ 2.82 µM) |  |  |  |  | melting point: 116 to 118 °C |
| 3.64 µg/mL | 0.719 µg/mL | 2.17 µg/mL | 1.14 µg/mL | COc1ccc2c(c1)C(=O)c1c-2c(OCCCN(C)C)nc2ccccc12 [Compound 6] |  | 100% | good anti-tumor activity in vivo | 100% |  | 98.33% |  | 100% |  |  |  |  |  |  |
| 1.29 µg/mL | 0.580 µg/mL | 0.552 µg/mL | 6.11 µg/mL | CCN(CC)CCOc1nc2ccc(OC)cc2c2c1-c1ccc(OC)cc1C2=O [Compound 14] |  | 99.95% | good anti-tumor activity in vivo | 97.47% |  | 100% |  | 100% |  |  |  |  |  |  |
|  |  |  |  | COc1ccc2c(c1)C(=O)c1c-2c(=O)n(CCN(C)C)c2ccccc12 [Compound 31, 5-(2-dimethylaminoethyl)-9-methoxy-5H-indeno[1,2-c]quinoline-6,11-dione] | 1.83 µg/mL (≈ 5.25 µM) |  |  |  | 1.2 µg/mL (≈ 3.44 µM) |  | 0.746 µg/mL (≈ 2.14 µM) |  | 1.72 µg/mL (≈ 4.94 µM) | 86.09% | 88.35% | 90.60% | 93.62% | melting point: 198 to 200 °C |
|  |  |  |  | COc1ccc2c(c1)C(=O)c1c-2c(=O)n(CCCN(C)C)c2cc(OC)c(OC)cc12 [Compound 46] |  |  | good anti-tumor activity in vivo |  |  |  |  |  |  | 85.86% | 87.44% | 90.77% | 68.78% | MDA-MB-435 IC50 ([1]; MTT assay, 72 h incubation, MDA-MB-435 cells): 0.267 µg/mL; Colo205 IC50 ([3]; MTT assay, 72 h incubation, Colo205 cells): 22.18 µg/mL; HepG2 IC50 ([4]; MTT assay, 72 h incubation, HepG2 cells): 12.02 µg/mL; A549 IC50 ([5]; MTT assay, 72 h incubation, A549 cells): 12.52 µg/mL |
|  |  |  |  | CC[C@@]1(O)C(=O)OCc2c1cc1n(c2=O)Cc2cc3cc(O)ccc3nc2-1 [HCPT, 10-hydroxycamptothecin, reference compound] | 0.00127 µg/mL (≈ 0.00349 µM) | 96.71% |  | 88.14% | 0.0049 µg/mL (≈ 0.0134 µM) | 100% | 0.147 µg/mL (≈ 0.403 µM) | 84.68% | 0.00364 µg/mL (≈ 0.00999 µM) | 96.71% | 88.14% | 100% | 84.68% |  |

| Compound | MDA-MB-435 IC50 [1, 7] | Colo205 IC50 [3, 8] | HepG2 IC50 [4, 9] | A549 IC50 [5, 10] | IC50 [1] | MDA-MB-435 100 μg/mL IC % [1, 6] | anti-tumor activity in vivo [2] | Colo205 100 μg/mL IC % ([3]; Colo205, 100 μg/mL, MTT, 72 h) | IC50 [3] | HepG2 100 μg/mL IC % ([4]; HepG2, 100 μg/mL, MTT, 72 h) | IC50 [4] | A549 100 μg/mL IC % ([5]; A549, 100 μg/mL, MTT, 72 h) | IC50 [5] | MDA-MB-435 100 μg/mL IC % [1, 11] | Colo205 100 μg/mL IC % [3, 12] | HepG2 100 μg/mL IC % [4, 13] | A549 100 μg/mL IC % [5, 14] | other results |
| --- | --- | --- | --- | --- | --- | --- | --- | --- | --- | --- | --- | --- | --- | --- | --- | --- | --- | --- |
| COc1ccc2c(c1)C(=O)c1c-2c(OCCN(C)C)nc2cc(OC)c(OC)cc12 [Compound 20] | 0.99 µg/mL | 0.606 µg/mL | 1.28 µg/mL | 13.78 µg/mL |  | 99.28% | good anti-tumor activity in vivo | 93.79% |  | 99.17% |  | 100% |  |  |  |  |  |  |
